Results reported in patent US20210378244A1, “VIRUCIDAL COMPOSITIONS AND METHODS” (InExtreme Enterprises Pty Ltd, priority 2020, published 2021).

System: Gloeocapsa magma
Test: Biological testing: visual rating of Gloeocapsa magma growth on inoculated plywood panels dipped in test solutions
Type: cell-based
Details: for effect on biocidal activity when combined with DDAC and/or BAC (QAC): QAC or QAC mixture and additive at concentrations as in the tables, data not shown for urea and urea dihydrochloride
Protocol: Test Solutions and Tests: To prepare the various QAC solutions, the following materials where used: Stepan BTC 1010 (50% aqueous solution of didecyl dimethyl ammonium chloride) and Stepan BTC 12 Special (50% aqueous solution of alkyl dimethyl benzyl ammonium chloride). Urea Monohydrochloride was prepared by reacting solid urea with hydrochloric acid 20BE (32% aqueous solution) at a ratio of one Mol active HCl to one Mol urea. Both Urea and HCl 20 BE are readily commercially available.
Biological testing: Gloeocapsa magma was chosen as a bacterial species that served as a model system for corona virus in terms of surface adhesion and membrane characteristics. The bacteria were cultured in a petri dish and inoculated on plywood panels (10×10 cm). […] The panels were dipped in the testing solutions for 10 seconds and left to dry. 24 hours post immersion each panel was examined for presence of green (living bacteria). This was done visually and rated from 0 (no growth)) to 5 (full growth coverage).

Row | SMILES | effect on biocidal activity when combined with DDAC and/or BAC (QAC) | biocidal effect (0.9% of DDAC in combination with the urea or other nitrogenous base-hydrochloride in water)
1 | NC(N)=O [urea] | no impact in biocidal activity | 
2 | CCCCCCCCCC[N+](C)(C)CCCCCCCCCC.[Cl-] [DDAC, didecyl dimethyl ammonium chloride] |  | same biocidal effect as 3% DDAC alone in water
3 | Cl.NC(N)=O [UMC, Urea Monohydrochloride] | synergistic effect | 
4 | Cl.Cl.NC(N)=O [urea dihydrochloride] | no impact in biocidal activity | 
